Data taken from ChEMBL document CHEMBL4419163, “Assays for identifying compounds that modulate bitter taste” (2014).

How the values were obtained:
Format in all cases: functional, cell-based
[1] = biological target: Taste receptor type 2 member 40 (Homo sapiens) (UniProt P59535); assay: Agonist activity at human TAS2R40 expressed in HEK293T cells co-expressing Galpha15 assessed as increase in intracellular calcium level at 20 mM by Calcium-3 dye based fluorescence assay relative to control
[2] = biological target: T1, Taste receptor type 2 member 5 (Homo sapiens) (UniProt Q9NYW4); assay: Agonist activity at human TAS2R5 expressed in HEK293T cells co-expressing Galpha15 assessed as increase in intracellular calcium level at 20 mM by Calcium-3 dye based fluorescence assay relative to control
T1 sequence (whole entry): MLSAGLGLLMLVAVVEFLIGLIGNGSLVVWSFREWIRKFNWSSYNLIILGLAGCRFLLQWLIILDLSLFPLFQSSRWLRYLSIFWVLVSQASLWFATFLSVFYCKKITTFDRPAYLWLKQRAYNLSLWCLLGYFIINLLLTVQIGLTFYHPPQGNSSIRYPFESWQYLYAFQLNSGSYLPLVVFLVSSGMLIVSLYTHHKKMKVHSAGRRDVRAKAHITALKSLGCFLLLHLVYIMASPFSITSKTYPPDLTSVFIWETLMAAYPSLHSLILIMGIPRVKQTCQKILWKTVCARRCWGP

[3] = biological target: T2, Taste receptor type 2 member 20 (Homo sapiens) (UniProt P59543); assay: Agonist activity at human TAS2R49 expressed in HEK293T cells co-expressing Galpha15 assessed as increase in intracellular calcium level at 20 mM by Calcium-3 dye based fluorescence assay relative to control
T2 sequence (whole entry): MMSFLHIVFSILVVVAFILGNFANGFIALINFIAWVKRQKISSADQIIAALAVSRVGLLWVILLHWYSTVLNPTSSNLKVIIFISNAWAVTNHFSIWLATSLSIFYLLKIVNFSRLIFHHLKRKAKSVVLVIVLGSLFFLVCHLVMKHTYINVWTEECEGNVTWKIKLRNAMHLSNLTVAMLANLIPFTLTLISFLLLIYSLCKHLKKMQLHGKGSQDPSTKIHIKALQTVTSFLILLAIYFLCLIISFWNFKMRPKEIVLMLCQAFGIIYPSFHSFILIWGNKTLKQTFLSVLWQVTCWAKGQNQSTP

[4] = biological target: T3, Taste receptor type 2 member 31 (Homo sapiens) (UniProt P59538); assay: Agonist activity at human TAS2R44 expressed in HEK293T cells co-expressing Galpha15 assessed as increase in intracellular calcium level at 20 mM by Calcium-3 dye based fluorescence assay relative to control
T3 sequence (whole entry): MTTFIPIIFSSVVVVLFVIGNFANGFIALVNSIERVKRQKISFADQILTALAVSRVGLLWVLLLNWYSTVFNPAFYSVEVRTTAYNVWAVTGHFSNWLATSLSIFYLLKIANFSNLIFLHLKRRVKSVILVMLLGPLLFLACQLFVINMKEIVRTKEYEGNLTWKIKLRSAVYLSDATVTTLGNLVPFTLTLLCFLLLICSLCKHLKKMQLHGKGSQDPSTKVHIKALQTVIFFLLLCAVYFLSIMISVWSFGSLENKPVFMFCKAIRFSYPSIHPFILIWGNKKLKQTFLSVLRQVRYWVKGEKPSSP

[5] = biological target: T4, Taste receptor type 2 member 14 (Homo sapiens) (UniProt Q9NYV8); assay: Agonist activity at human TAS2R14 expressed in HEK293T cells co-expressing Galpha15 assessed as increase in intracellular calcium level at 20 mM by Calcium-3 dye based fluorescence assay relative to control
T4 sequence (whole entry): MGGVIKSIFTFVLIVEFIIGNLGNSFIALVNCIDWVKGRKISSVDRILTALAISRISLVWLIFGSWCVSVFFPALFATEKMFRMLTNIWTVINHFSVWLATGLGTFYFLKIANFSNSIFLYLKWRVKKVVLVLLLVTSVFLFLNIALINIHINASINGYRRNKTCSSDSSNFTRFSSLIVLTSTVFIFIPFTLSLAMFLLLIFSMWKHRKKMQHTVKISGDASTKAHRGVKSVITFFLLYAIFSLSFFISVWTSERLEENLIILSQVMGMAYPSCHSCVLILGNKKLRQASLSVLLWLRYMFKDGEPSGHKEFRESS

[6] = biological target: T5, Taste receptor type 2 member 45 (Homo sapiens) (UniProt P59539); assay: Agonist activity at human TAS2R45 expressed in HEK293T cells co-expressing Galpha15 assessed as increase in intracellular calcium level at 20 mM by Calcium-3 dye based fluorescence assay relative to control
T5 sequence (whole entry): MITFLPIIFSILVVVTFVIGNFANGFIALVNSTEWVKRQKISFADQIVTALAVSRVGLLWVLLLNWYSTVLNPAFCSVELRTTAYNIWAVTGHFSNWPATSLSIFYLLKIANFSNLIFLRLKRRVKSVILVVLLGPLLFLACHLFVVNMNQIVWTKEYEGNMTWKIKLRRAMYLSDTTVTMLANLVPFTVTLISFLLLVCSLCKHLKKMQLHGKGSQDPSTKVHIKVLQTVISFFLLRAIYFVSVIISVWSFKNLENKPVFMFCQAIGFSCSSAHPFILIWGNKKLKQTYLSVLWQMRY

[7] = biological target: T6, Taste receptor type 2 member 10 (Homo sapiens) (UniProt Q9NYW0); assay: Agonist activity at human TAS2R10 expressed in HEK293T cells co-expressing Galpha15 assessed as increase in intracellular calcium level at 20 mM by Calcium-3 dye based fluorescence assay relative to control
T6 sequence (whole entry): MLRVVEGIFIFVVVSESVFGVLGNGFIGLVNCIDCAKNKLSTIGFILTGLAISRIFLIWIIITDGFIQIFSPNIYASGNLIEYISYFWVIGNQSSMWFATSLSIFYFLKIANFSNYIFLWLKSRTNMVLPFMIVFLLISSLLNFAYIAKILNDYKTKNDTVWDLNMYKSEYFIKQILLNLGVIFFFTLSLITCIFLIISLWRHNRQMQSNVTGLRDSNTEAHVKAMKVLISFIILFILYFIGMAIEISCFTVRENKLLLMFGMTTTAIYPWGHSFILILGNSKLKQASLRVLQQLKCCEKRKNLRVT

[8] = biological target: T7, Taste receptor type 2 member 43 (Homo sapiens) (UniProt P59537); assay: Agonist activity at human TAS2R43 expressed in HEK293T cells co-expressing Galpha15 assessed as increase in intracellular calcium level at 20 mM by Calcium-3 dye based fluorescence assay relative to control
T7 sequence (whole entry): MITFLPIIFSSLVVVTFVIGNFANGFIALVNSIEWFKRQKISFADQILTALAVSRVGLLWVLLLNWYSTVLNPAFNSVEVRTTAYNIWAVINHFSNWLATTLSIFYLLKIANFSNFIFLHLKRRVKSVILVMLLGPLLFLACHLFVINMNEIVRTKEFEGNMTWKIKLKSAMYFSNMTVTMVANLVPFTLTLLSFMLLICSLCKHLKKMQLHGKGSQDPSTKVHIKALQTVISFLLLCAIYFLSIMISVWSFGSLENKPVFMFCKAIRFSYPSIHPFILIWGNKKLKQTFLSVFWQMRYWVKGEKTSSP

Measured: Activity

Chain of Taste receptor type 2 member 40 (Homo sapiens) (P59535 whole entry): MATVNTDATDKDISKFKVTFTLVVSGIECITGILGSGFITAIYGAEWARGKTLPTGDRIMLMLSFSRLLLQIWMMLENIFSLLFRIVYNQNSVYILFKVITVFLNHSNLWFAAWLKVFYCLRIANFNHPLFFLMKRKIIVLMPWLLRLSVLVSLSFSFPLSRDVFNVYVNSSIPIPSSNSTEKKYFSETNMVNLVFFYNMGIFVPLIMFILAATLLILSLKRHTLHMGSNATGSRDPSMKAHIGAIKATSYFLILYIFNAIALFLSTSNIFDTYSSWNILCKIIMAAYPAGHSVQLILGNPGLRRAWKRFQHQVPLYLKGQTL

[Cl-].[K+] [POTASSIUM CHLORIDE]
> 40%: [4] | [5]
< 40%: all other assays above

CC1=CC(=O)NS(=O)(=O)O1
> 40%: [4] | [5]
< 40%: all other assays above

CC(O)C(=O)[O-].[K+] (centres undefined)
> 40%: [4] | [5]
< 40%: all other assays above
